From patent US20230303540A1 (Merck Sharp & Dohme LLC, priority 2020, published 2023)

target: GST-tagged truncated human mutant G2019S LRRK2 (Homo sapiens, UniProt Q5S007, G2019S); assay: LRRK2 G2019S Km ATP LanthaScreen assay; type: biochemical; details: 134 μM ATP (Km ATP), LRRKtide substrate, mean IC50 values; read-out: LRRK2 pIC50 (converted)
Protocol: Unless otherwise noted, all reactions are magnetically stirred. Unless otherwise noted, when diethyl ether is used in the experiments described below, it is Fisher ACS certified material and is stabilized with BHT. Unless otherwise noted, “concentrated” and/or “solvent removed under reduced pressure” means evaporating the solvent from a solution or mixture using a rotary evaporator or vacuum pump. Unless otherwise noted, flash chromatography is carried out on a Teledyne Isco (Lincoln, NE), Analogix (Burlington, WI), or Biotage (Stockholm, SWE) automated chromatography system using a commercially available cartridge as the column. Columns may be purchased from Teledyne Isco, Analogix, Biotage, Varian (Palo Alto, CA), or Supelco (Bellefonte, PA) and are usually filled with silica gel as the stationary phase. Reverse phase prep-HPLC conditions, where used, can be found at the end of each experimental section. Aqueous solutions were concentrated on a Genevac (Ipswich, ENG) or by freeze-drying/lyophilization. Unless otherwise noted, all LRRK2 pIC50 data presented in tables refers to the LRRK2 G2019S Km ATP LanthaScreen™ assay (Life Technologies Corp., Carlsbad, CA) that is described in the Biological Assay section.
The IC50 values reported herein were measured as follows.
Biological Assay: LRRK2 Km ATP LanthaScreen™ Assay
The LRRK2 kinase activity reported herein as IC50 values was determined with LanthaScreen™ technology from Life Technologies Corporation (Carlsbad, CA) using GST-tagged truncated human mutant G2019S LRRK2 in the presence of the fluorescein-labeled peptide substrate LRRKtide, also from Life Technologies. The data presented for the Km ATP LanthaScreen™ Assay represents mean IC50 values based on several test results and may have reasonable deviations depending on the specific conditions and reagents used. Assays were performed in the presence of 134 μM ATP (Km ATP). Upon completion, the assay was stopped and phosphorylated substrate detected with a terbium (Tb)-labeled anti-pERM antibody (cat. no. PV4898). The compound dose response was prepared by diluting a 10 mM stock of compound to a maximum concentration of 9.99 μM in 100% dimethylsulfoxide followed by custom fold serial dilution in dimethylsulfoxide nine times. Twenty nanoliters of each dilution was spotted via a Labcyte Echo onto a 384-well black-sided plate (Corning 3575) followed by 15 μl of a 1.25 nM enzyme solution in 1× assay buffer (50 mM Tris pH 8.5, 10 mM MgCl2, 0.01% Brij-35, 1 mM EGTA, 2 mM dithiothreitol, 0.05 mM sodium orthovanadate). Following a 15-minute incubation at room temperature, the kinase reaction was started with the addition of 5 μl of 400 nM fluorescein-labeled LRRKtide peptide substrate and 134 μM ATP solution in 1× assay buffer. The reaction was allowed to progress at ambient temperature for 90 minutes. The reaction was then stopped by the addition of 20 μl of TR-FRET Dilution Buffer (Life Technologies, Carlsbad, CA) containing 2 nM Tb-labeled anti-phospho LRRKtide antibody and 10 mM EDTA (Life Technologies, Carlsbad, CA). After an incubation of 1 hour at room temperature, the plate was read on an EnVision multimode plate reader (Perkin Elmer, Waltham, MA) with an excitation wavelength of 337 nm (Laser) and a reading emission at both 520 and 495 nm. Compound IC50s were interpolated from nonlinear regression best fits of the log of the final compound concentration, plotted as a function of the 520/495-nm emission ratio using Activity base. Abase uses a 4 parameter (4P) logistic fit based on the Levenberg-Marquardt algorithm.

SMILES | IC50
CCn1ncc(Nc2ncc3ccc(N4CCCC4C)cc3n2)c1C (single isomer, unassigned) [Ex-1.8, (S) or (R) N-(1-ethyl-5-methyl-1H-pyrazol-4-yl)-7-(2-methylpyrrolidin-1-yl)quinazolin-2-amine] | 16 nM
CCn1ncc(Nc2ncc3cc(Cl)c(N4CCN(C5(C)COC5)CC4)cc3n2)c1Cl [Ex-4.68, 6-chloro-N-(5-chloro-1-ethyl-1H-pyrazol-4-yl)-7-[4-(3-methyloxetan-3-yl)piperazin-1-yl]quinazolin-2-amine] | 3.38 nM
CC1CCN1c1cc2nc(Nc3cnn(C4CN(CC(C)(C)O)C4)c3)ncc2cc1Cl (stereo not drawn) [Ex-4.10, 1-[3-(4-{[6-chloro-7-(2-methylazetidin-1-yl)quinazolin-2-yl]amino}-1H-pyrazol-1-yl)azetidin-1-yl]-2-methylpropan-2-ol] | 34.3 nM
OC[C@H]1CCN(c2cc3nc(Nc4cnn(CC(F)F)c4Cl)ncc3cc2Cl)C1 [Ex-1.20, [(3S)-1-(6-chloro-2-{[5-chloro-1-(2,2-difluoroethyl)-1H-pyrazol-4-yl]amino}quinazolin-7-yl)pyrrolidin-3-yl]methanol] | 8.23 nM
Cc1cc2cnc(Nc3cnn(C4CC4)c3Cl)nc2cc1N1CCN(C2(C)COCC2O)CC1 (single isomer, unassigned) [Ex-5.6, (3S,4S) or (3R,4R) 4-(4-(2-((5-chloro-1-cyclopropyl-1H-pyrazol-4-yl)amino)-6-methylquinazolin-7-yl)piperazin-1-yl)-4-methyltetrahydrofuran-3-ol] | 0.403 nM
Cc1cc2cnc(Nc3cnn(C4CC4(F)F)c3C)nc2cc1N1CCN(C2(C)COCC2O)CC1 (single isomer, unassigned) [Ex-5.3, (3S,4S) or (3R,4R) 4-(4-(2-((1-(2,2-(R) or (S)difluorocyclopropyl)-5-methyl-1H-pyrazol-4-yl)amino)-6-methylquinazolin-7-yl)piperazin-1-yl)-4-methyltetrahydrofuran-3-ol] | 0.31 nM
Clc1cc2cnc(Nc3cnn(C45CC(C4)C5)c3Cl)nc2cc1N1CCC2(CCOC2)CC1 [Ex-3.39, N-[1-(bicyclo[1.1.1]pentan-1-yl)-5-chloro-1H-pyrazol-4-yl]-6-chloro-7-(2-oxa-8-azaspiro[4.5]decan-8-yl) quinazolin-2-amine] | 3.23 nM
CC1CN(C2CCN(c3cc4nc(Nc5cnn(C6CC6)c5Cl)ncc4cc3Cl)CC2)C1 [Ex-1.43, 6-chloro-N-(5-chloro-1-cyclopropyl-1H-pyrazol-4-yl)-7-[4-(3-methylazetidin-1-yl)piperidin-1-yl]quinazolin-2-amine] | 12.7 nM
OC1CN(C2CCN(c3cc4nc(Nc5cnn(CC(F)F)c5Cl)ncc4cc3Cl)CC2)C1 [Ex-1.22, 1-[1-(6-chloro-2-{[5-chloro-1-(2,2-difluoroethyl)-1H-pyrazol-4-yl]amino}quinazolin-7-yl)piperidin-4-yl]azetidin-3-ol] | 6.94 nM
CC1CN(C2CCN(c3cc4nc(Nc5cnn(C6(C)CC6)c5Cl)ncc4cc3Cl)CC2)C1 [Ex-4.43, 6-chloro-N-[5-chloro-1-(1-methylcyclopropyl)-1H-pyrazol-4-yl]-7-[4-(3-methylazetidin-1-yl)piperidin-1-yl]quinazolin-2-amine] | 3.52 nM
Clc1cc2cnc(Nc3cnn(C4CC4)c3Cl)nc2cc1N1CCC(N2CCC2)CC1 [Ex-1.28, 7-[4-(azetidin-1-yl)piperidin-1-yl]-6-chloro-N-(5-chloro-1-cyclopropyl-1H-pyrazol-4-yl)quinazolin-2-amine] | 3.31 nM
Cc1c(Nc2ncc3cc(Cl)c(N4CCN(C5COCC5O)CC4)cc3n2)cnn1C(F)F (single isomer, unassigned) [Ex-13.7, (3S,4S) or (3R, 4R)-4-(4-(6-chloro-2-((1-(difluoromethyl)-5-methyl-1H-pyrazol-4-yl)amino)quinazolin-7-yl)piperazin-1-yl)tetrahydrofuran-3-ol] | 31.6 nM
OC1CCN(c2cc3nc(Nc4cnn(CC(F)F)c4Cl)ncc3cc2Cl)CC1 [Ex-1.21, 1-(6-chloro-2-{[5-chloro-1-(2,2-difluoroethyl)-1H-pyrazol-4-yl]amino}quinazolin-7-yl)piperidin-4-ol] | 6.09 nM
Cc1c(Nc2ncc3cc(Cl)c(N4CCN(C5(C)COC5)CC4)cc3n2)cnn1CCF [Ex-4.12, 6-chloro-N-[1-(2-fluoroethyl)-5-methyl-1H-pyrazol-4-yl]-7-[4-(3-methyloxetan-3-yl)piperazin-1-yl]quinazolin-2-amine] | 0.625 nM
CC1CN(C2COCC2O)CCN1c1cc2nc(Nc3cnn(C4CC4)c3Cl)ncc2cc1Cl (single isomer, unassigned) [Ex-12.8, (3S,4S) or (3R, 4R)-4-((R) or (S)-4-(6-chloro-2-((5-chloro-1-cyclopropyl-1H-pyrazol-4-yl)amino)quinazolin-7-yl)-3-methylpiperazin-1-yl)tetrahydrofuran-3-ol] | 0.088 nM
Cc1c(Nc2ncc3cc(Cl)c(N4CCC(C)(O)C(C)C4)cc3n2)cnn1C1CC1 (single isomer, unassigned) [Ex-3.49, (3R,4R) or (3S,4S) or (3R,4S) or (3S,4R) 1-{6-chloro-2-[(1-cyclopropyl-5-methyl-1H-pyrazol-4-yl)amino]quinazolin-7-yl}-3,4-dimethylpiperidin-4-ol] | 1.33 nM
Cn1ncc(Nc2ncc3ccc(N4C(=O)C5CCC4C5)cc3n2)c1C(F)F (single isomer, unassigned) [Ex-4.7, 2-(2-{[5-(difluoromethyl)-1-methyl-1H-pyrazol-4-yl]amino}quinazolin-7-yl)-2-azabicyclo[2.2.1]heptan-3-one] | 3.19 nM
Cc1c(Nc2ncc3cc(Cl)c(N4CCN(C5COCC5O)CC4)cc3n2)cnn1CC(F)(F)F (single isomer, unassigned) [Ex-6.37, (3S,4S) or (3R,4R) 4-[4-(6-chloro-2-{[5-methyl-1-(2,2,2-trifluoroethyl)-1H-pyrazol-4-yl]amino}quinazolin-7-yl)piperazin-1-yl]oxolan-3-ol] | 6.35 nM
C[C@H]1COC(=O)N1c1ccc2cnc(Nc3cn(C)nc3C(F)F)nc2c1 [Ex-8.12, (4S)-3-(2-{[3-(difluoromethyl)-1-methyl-1H-pyrazol-4-yl]amino}quinazolin-7-yl)-4-methyl-1,3-oxazolidin-2-one] | 1.63 nM
C[C@]1(O)[C@@H]2CC[C@H]1CN(c1cc3nc(Nc4cnn(C56CC(C5)C6)c4Cl)ncc3cc1Cl)C2 [Ex-3.38, (8-syn)-3-(2-{[1-(bicyclo[1.1.1]pentan-1-yl)-5-chloro-1H-pyrazol-4-yl]amino}-6-chloroquinazolin-7-yl)-8-methyl-3-azabicyclo[3.2.1]octan-8-ol] | 6.62 nM
C[C@@H]1CN(C2COC2)CC[C@@H]1n1ncc(Nc2ncc3ccc(N4C(=O)OC[C@@H]4C)cc3n2)c1Cl [Ex-8.11, (4.5)-3-[2-({5-chloro-1-[(3R,4S)-3-methyl-1-(oxetan-3-yl)piperidin-4-yl]-1H-pyrazol-4-yl}amino)quinazolin-7-yl]-4-methyl-1,3-oxazolidin-2-one] | 1.59 nM
Cc1c(Nc2ncc3cc(Cl)c(N4CCC(C)(O)CC4C)cc3n2)cnn1C1CC1 (single isomer, unassigned) [Ex-9.2, (2R,4S or 2S,4R, or 2S,4S, or 2R,4R)-1-(6-Chloro-2-((1-cyclopropyl-5-methyl-1H-pyrazol-4-yl)amino)quinazolin-7-yl)-2,4-dimethylpiperidin-4-ol] | 1.06 nM
Cc1c(Nc2ncc3cc(Cl)c(N4CCN(C5(C)COC(C)(C)C5)CC4)cc3n2)cnn1C1CC1 (single isomer, unassigned) [Ex-12.3] | 186 nM
C[C@H]1COC(=O)N1c1ccc2cnc(Nc3cc(C(C)(C)C)ns3)nc2c1 [Ex-8.10, (4S)-3-{2-[(3-tert-butyl-1,2-thiazol-5-yl)amino]quinazolin-7-yl}-4-methyl-1,3-oxazolidin-2-one] | 0.625 nM
